{"source": "paper PMC4887402", "about": "(Journal of inorganic biochemistry, 2015)", "molecular_target": "Cytochrome P450 CYP3A4 (Homo sapiens, UniProt P08684)", "sequence (P08684 whole entry)": "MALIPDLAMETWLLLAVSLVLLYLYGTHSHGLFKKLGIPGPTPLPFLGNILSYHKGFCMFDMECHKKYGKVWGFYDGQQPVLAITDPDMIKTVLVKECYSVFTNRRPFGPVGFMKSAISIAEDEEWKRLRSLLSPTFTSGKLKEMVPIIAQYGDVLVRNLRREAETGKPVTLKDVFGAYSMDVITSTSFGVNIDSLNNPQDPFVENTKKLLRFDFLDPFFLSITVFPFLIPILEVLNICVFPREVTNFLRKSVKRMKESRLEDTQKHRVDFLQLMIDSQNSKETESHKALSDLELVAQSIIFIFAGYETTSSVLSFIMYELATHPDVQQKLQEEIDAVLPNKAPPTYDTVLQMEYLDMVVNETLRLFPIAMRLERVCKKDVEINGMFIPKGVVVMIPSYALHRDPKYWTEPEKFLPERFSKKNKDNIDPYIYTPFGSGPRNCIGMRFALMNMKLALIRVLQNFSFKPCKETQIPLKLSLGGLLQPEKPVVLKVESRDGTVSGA", "assay": "UV-VIS spectral titration", "format": "binding", "data": [{"molecule": "C[C@]12CC[C@H]3[C@@H]([C@H](C/C=C\\C[C@@H]4CC5=CC(=O)CC[C@]5(C)[C@H]5CC[C@]6(C)[C@@H](O)CC[C@H]6[C@H]45)CC4=CC(=O)CC[C@@]43C)[C@@H]1CC[C@@H]2O", "note": "[cis-TST2]", "values": [{"measurement": "Kd", "result": 0.3, "unit": "µM"}]}, {"molecule": "C[C@]12CC[C@H]3[C@@H]([C@H](C/C=C/C[C@@H]4CC5=CC(=O)CC[C@]5(C)[C@H]5CC[C@]6(C)[C@@H](O)CC[C@H]6[C@H]45)CC4=CC(=O)CC[C@@]43C)[C@@H]1CC[C@@H]2O", "note": "[trans-TST2]", "values": [{"measurement": "Kd", "result": 8, "unit": "µM"}]}]}
